Experimental findings from PMC7612079 (Science translational medicine, 2021) are described below.

Where only a bound is given, the exact number is not on record here.

Type in all cases: biochemical
The target of assay [1] is T1, ULK1 (unc-51–like autophagy activating kinase 1) (Homo sapiens, UniProt O75385).
T1 sequence (O75385 1-1050): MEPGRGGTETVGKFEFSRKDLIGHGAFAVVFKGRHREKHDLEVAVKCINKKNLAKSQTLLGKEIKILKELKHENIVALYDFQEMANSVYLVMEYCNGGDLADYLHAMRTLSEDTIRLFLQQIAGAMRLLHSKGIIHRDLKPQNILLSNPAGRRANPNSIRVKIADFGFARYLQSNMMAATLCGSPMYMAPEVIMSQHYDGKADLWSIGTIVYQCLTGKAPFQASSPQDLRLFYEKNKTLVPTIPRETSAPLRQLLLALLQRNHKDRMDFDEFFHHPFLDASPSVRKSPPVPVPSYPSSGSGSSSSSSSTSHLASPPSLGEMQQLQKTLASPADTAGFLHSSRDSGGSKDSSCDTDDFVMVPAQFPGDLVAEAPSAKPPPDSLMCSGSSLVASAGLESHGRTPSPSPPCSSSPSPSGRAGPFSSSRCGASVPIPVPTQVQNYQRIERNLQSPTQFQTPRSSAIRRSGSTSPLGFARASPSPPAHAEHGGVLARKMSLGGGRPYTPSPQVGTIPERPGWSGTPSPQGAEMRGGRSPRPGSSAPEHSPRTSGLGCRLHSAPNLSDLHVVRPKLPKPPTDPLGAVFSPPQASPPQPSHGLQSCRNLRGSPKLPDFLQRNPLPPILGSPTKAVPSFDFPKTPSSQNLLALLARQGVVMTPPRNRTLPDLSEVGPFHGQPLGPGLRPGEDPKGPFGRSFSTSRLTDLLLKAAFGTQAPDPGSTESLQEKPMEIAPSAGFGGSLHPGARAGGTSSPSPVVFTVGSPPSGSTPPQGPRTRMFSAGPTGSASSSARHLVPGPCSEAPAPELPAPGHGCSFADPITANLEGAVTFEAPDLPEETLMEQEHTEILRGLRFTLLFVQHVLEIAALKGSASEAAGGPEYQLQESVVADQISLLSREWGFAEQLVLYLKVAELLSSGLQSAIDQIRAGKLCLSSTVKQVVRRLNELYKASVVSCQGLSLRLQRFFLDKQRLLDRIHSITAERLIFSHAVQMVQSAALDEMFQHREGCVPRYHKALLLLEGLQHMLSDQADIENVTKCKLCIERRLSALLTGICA
The experiment in a line: radiometric […] kinase assay with myelin basic protein, […] ATP.

The target in the next assay is T2, ULK2 (Homo sapiens, UniProt Q8IYT8).
T2 sequence (Q8IYT8 1-1036): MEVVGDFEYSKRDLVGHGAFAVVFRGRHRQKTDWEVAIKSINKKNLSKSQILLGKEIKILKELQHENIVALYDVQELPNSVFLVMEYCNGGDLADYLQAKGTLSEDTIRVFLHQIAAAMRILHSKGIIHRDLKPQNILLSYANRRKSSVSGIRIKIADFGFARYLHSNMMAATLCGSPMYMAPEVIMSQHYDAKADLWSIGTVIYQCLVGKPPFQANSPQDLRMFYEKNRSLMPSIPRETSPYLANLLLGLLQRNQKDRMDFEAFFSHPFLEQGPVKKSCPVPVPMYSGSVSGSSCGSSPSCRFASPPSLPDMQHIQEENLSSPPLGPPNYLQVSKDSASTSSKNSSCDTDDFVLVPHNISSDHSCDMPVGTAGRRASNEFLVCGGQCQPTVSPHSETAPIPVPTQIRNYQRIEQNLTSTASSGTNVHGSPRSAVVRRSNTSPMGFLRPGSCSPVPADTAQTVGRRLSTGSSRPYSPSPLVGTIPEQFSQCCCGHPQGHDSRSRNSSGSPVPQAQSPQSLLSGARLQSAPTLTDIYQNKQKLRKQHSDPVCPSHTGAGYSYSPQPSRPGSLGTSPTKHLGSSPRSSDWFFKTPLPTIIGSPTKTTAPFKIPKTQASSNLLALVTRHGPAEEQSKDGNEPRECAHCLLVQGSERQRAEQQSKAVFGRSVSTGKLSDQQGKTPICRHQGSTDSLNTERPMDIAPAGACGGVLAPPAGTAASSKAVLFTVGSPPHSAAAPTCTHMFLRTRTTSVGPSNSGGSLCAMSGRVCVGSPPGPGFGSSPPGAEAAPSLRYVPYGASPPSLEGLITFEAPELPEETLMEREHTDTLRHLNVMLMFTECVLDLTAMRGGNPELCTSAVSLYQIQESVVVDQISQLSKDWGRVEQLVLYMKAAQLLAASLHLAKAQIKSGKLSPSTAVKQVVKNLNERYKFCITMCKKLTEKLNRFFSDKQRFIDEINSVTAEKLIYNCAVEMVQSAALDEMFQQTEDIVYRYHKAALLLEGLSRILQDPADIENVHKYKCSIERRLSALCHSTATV
The experiment in a line: single-point kinase panel at […].

Another assay concerns the target T3, TANK-binding kinase 1 (Homo sapiens, UniProt Q9UHD2).
T3 sequence (Q9UHD2 1-729): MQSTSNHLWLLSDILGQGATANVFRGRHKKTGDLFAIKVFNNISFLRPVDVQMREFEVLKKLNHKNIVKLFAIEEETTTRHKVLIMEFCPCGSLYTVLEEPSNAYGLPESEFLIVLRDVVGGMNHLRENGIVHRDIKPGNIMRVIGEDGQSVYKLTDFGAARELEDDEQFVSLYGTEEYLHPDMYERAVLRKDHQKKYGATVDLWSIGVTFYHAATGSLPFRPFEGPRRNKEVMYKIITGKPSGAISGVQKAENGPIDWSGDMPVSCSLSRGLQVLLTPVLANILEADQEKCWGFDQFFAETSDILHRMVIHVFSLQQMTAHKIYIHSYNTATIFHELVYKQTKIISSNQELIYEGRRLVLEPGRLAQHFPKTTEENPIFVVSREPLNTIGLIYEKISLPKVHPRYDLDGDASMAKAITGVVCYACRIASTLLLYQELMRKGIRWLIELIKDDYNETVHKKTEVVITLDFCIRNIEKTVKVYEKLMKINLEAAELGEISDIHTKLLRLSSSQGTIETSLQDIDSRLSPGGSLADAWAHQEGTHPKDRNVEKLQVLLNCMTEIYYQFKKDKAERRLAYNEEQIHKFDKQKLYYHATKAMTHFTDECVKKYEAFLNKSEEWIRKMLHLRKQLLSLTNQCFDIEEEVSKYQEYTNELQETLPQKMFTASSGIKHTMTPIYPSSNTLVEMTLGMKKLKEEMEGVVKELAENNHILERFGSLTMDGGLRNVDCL
The experiment in a line: single-point panel of […] kinases at […]. The conditions noted are these: read-out: % inhibition at 1 μM.

For another assay, the target named is AMPK (Homo sapiens, UniProt P54646). The experiment in a line: single-point panel of […] kinases at […]. The settings on record: read-out: % inhibition at 1 μM.
AMPK, sequence (P54646 whole entry): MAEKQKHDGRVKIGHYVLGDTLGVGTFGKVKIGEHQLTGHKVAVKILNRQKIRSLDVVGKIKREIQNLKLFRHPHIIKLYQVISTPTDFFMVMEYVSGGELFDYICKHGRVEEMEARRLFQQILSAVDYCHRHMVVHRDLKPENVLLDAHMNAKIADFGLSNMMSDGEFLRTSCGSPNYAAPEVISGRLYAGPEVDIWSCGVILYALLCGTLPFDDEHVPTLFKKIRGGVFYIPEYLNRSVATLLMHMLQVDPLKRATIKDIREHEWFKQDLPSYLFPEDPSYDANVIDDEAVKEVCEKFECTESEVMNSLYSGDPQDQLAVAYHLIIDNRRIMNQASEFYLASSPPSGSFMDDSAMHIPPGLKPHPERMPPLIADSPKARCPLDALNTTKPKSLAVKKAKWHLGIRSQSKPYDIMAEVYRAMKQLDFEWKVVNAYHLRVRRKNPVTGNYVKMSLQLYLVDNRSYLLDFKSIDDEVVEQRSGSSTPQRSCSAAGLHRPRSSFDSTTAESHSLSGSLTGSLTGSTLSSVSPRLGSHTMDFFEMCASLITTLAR
AMPK, sequence (Q9Y478 2-270 partner): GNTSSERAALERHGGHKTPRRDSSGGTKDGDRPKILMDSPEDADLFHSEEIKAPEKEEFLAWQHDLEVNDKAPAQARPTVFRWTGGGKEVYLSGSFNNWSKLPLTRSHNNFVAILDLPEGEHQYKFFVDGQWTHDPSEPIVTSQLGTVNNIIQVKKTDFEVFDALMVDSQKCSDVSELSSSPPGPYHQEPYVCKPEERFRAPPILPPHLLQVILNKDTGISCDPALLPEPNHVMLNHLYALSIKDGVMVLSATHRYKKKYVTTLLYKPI
AMPK, sequence (P54619 whole entry partner): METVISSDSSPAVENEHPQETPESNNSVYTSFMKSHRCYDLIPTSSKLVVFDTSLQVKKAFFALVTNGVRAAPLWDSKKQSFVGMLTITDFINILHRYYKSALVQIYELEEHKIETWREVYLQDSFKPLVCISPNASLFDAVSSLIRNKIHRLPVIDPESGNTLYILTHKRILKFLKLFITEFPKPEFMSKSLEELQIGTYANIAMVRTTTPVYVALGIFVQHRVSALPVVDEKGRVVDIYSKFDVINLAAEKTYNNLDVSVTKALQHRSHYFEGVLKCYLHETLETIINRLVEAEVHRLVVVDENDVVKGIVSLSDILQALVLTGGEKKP
Assay [2] has as its target T1, ULK1 (unc-51–like autophagy activating kinase 1). The experiment in a line: single-point kinase panel at […]. The conditions noted are these: read-out: % inhibition at 1 μM.

One may read the IC50 as the concentration needed to halve the response being measured. Consider MRT403, for which, in assay [1], inhibition was half-maximal at 1.6 nM (IC50). Further, at ULK2, the “% inhibition at 1 μM” value is more than 90.

What is called inhibition is the share of the control response that was lost under treatment. Take `CN1CCc2cc(Nc3ncc(C4CC4)c(NCCCNC(=O)C4CCC4)n3)ccc2C1` [MRT68921]: the inhibition at 1 µM (on TANK-binding kinase 1; at AMPK; at ULK2 (read-out: % inhibition at 1 μM); in assay [2]) was more than 90% each time.
